Legend:
Nucleic Acid [1] = assay: Displacement of fluorescent pyrene-neomycin conjugate from tau stem-loop RNA; type: nucleic-acid assay
Nucleic Acid [2] = assay: Binding affinity to tau stem-loop RNA assessed as inhibition of RNA stem-loop unfolding; type: nucleic-acid assay

EC50 (Nucleic Acid [1]) [µM]	IC50 (Nucleic Acid [2]) [µM]	Structure (SMILES)
16	2.3	O=C1c2c(F)ccc(F)c2C(=O)c2c(NCCNCCO)ccc(NCCNCCO)c21
> 100	> 100	Nc1ccc(O)c2c1C(=O)c1c(N)ccc(O)c1C2=O
> 100	> 100	Nc1ccc(N)c2c1C(=O)c1c(O)ccc(O)c1C2=O
> 100	> 100	Nc1ccc(N)c2c1C(=O)c1c(N)ccc(N)c1C2=O
0.38	0.23	NCCNCCNCCNc1ccc(NCCNCCO)c2c1C(=O)c1c(O)ccc(O)c1C2=O
4.4	1.5	O=C1c2c(O)ccc(NCCNCCO)c2C(=O)c2c(NCCNCCO)ccc(O)c21
29	5.8	Nc1ccc(NCCNCCO)c2c1C(=O)c1c(O)ccc(O)c1C2=O
1.2	0.34	O=C1c2c(NCCNCCO)ccc(NCCNCCO)c2C(=O)c2c(NCCNCCO)ccc(NCCNCCO)c21
0.8	0.42	O=C1c2c(O)ccc(NCCNCCO)c2C(=O)c2c(NCCNCCO)ccc(NCCNCCO)c21
14	5.7	O=C1c2c(O)ccc(O)c2C(=O)c2c(NCCOCCO)ccc(NCCNCCO)c21
0.31	0.18	NCCNCCNc1ccc(NCCNCCO)c2c1C(=O)c1c(O)ccc(O)c1C2=O
12	2.4	CC(C)(C)OC(=O)NCCNCCNc1ccc(NCCNCCO)c2c1C(=O)c1c(O)ccc(O)c1C2=O
0.16	0.13	NCCNCCNc1ccc(NCCNCCN)c2c1C(=O)c1c(O)ccc(O)c1C2=O
75	5.7	O=C1c2c(O)ccc(O)c2C(=O)c2c(NCCNCCO)ccc(F)c21
0.13	0.13	NCCNCCNCCNc1ccc(NCCNCCNCCN)c2c1C(=O)c1c(O)ccc(O)c1C2=O

Structure (SMILES)	EC50 (Nucleic Acid [1]) [µM]	IC50 (Nucleic Acid [2]) [µM]
O=C1c2c(O)ccc(O)c2C(=O)c2c(NCCNCCO)ccc(NCCNCCO)c21 [MITOXANTRONE]	0.89	0.46
